Measured values: patent publication US20170190671A1, “BIS(ARYL)CATECHOL DERIVATIVES AS HERBICIDES” (E I DU PONT DE NEMOURS AND COMPANY, priority 2014, published 2017)

Columns and labels:
Format in all cases: in vivo
[1] = test system: johnsongrass (Sorghum halepense); experiment: Test C preemergence; conditions: Sorghum halepense, pre-emergence, 336 h, preemergence, scale 0 to 100, read-out: Plant response rating, Johnsongrass
Method in brief: (§1)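 0-100 visual injury score (100 = complete control), assessed at 13-15 d after treatment against controls; surfactant-containing solvent formulation applied preemergence to seeded loam-sand soil or sprayed onto 1- to 4-leaf greenhouse plants.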

[2] = test system: morningglory (Ipomoea coccinea); experiment: Test C preemergence; conditions: Ipomoea, pre-emergence, 336 h, preemergence, scale 0 to 100, read-out: Plant response rating, Morningglory
Method in brief: as §1

[3] = test system: pigweed (Amaranthus retroflexus); experiment: Test C preemergence; conditions: Amaranthus retroflexus, pre-emergence, 336 h, preemergence, scale 0 to 100, read-out: Plant response rating, Pigweed
Method in brief: as §1

[4] = test system: barnyardgrass (Echinochloa crus-galli); experiment: Test C postemergence; conditions: Echinochloa crus-galli, post-emergence, Postemergence, scale 0 to 100, read-out: Plant response rating, Barnyardgrass
[5] = test system: blackgrass (Alopecurus myosuroides); experiment: Test C postemergence; conditions: Alopecurus myosuroides, post-emergence, 336 h, Postemergence, scale 0 to 100, read-out: Plant response rating, Blackgrass
[6] = test system: chickweed (common chickweed, Stellaria media); experiment: Test C postemergence; conditions: Stellaria media, post-emergence, Postemergence, scale 0 to 100, read-out: Plant response rating, Chickweed
corn (Zea mays) = experiment: Test C postemergence; conditions: Zea mays, post-emergence, 336 h, Postemergence, scale 0 to 100
[7] = test system: galium (catchweed bedstraw, Galium aparine); experiment: Test C postemergence; conditions: Galium, post-emergence, 336 h, Postemergence, scale 0 to 100, read-out: Plant response rating, Galium
[8] = test system: giant foxtail (Setaria faberii); experiment: Test C postemergence; conditions: Setaria faberi, post-emergence, 336 h, Postemergence, scale 0 to 100, read-out: Plant response rating, Foxtail, Giant
[9] = test system: johnsongrass (Sorghum halepense); experiment: Test C postemergence; conditions: Sorghum halepense, post-emergence, 336 h, Postemergence, scale 0 to 100, read-out: Plant response rating, Johnsongrass
kochia (Kochia scoparia) = experiment: Test C postemergence; conditions: Bassia scoparia, post-emergence, Postemergence, scale 0 to 100, read-out: Plant response rating, Kochia
[10] = test system: lambsquarters (Chenopodium album); experiment: Test C postemergence; conditions: Chenopodium album, post-emergence, 336 h, Postemergence, scale 0 to 100, read-out: Plant response rating, Lambsquarters
[11] = test system: large (Lg) crabgrass (Digitaria sanguinalis); experiment: Test C postemergence; conditions: Digitaria sanguinalis, post-emergence, 336 h, Postemergence, scale 0 to 100, read-out: Plant response rating, Crabgrass, Large
[12] = test system: morningglory (Ipomoea coccinea); experiment: Test C postemergence; conditions: Ipomoea, post-emergence, 336 h, Postemergence, scale 0 to 100, read-out: Plant response rating, Morningglory
[13] = test system: oilseed rape (Brassica napus); experiment: Test C postemergence; conditions: Brassica napus, post-emergence, Postemergence, scale 0 to 100, read-out: Plant response rating, Oilseed Rape
[14] = test system: pigweed (Amaranthus retroflexus); experiment: Test C postemergence; conditions: Amaranthus retroflexus, post-emergence, 336 h, Postemergence, scale 0 to 100, read-out: Plant response rating, Pigweed
[15] = test system: ragweed (common ragweed, Ambrosia elatior); experiment: Test C postemergence; conditions: Ambrosia artemisiifolia, post-emergence, 336 h, Postemergence, scale 0 to 100, read-out: Plant response rating, Ragweed
soybean (Glycine max) = experiment: Test C postemergence; conditions: Glycine max, post-emergence, Postemergence, scale 0 to 100, read-out: Plant response rating, Soybean
[16] = test system: velvetleaf (Abutilon theophrasti); experiment: Test C postemergence; conditions: Abutilon theophrasti, post-emergence, Postemergence, scale 0 to 100, read-out: Plant response rating, Velvetleaf
[17] = test system: waterhemp (common waterhemp, Amaranthus rudis); experiment: Test C postemergence; conditions: Amaranthus tuberculatus, post-emergence, Postemergence, scale 0 to 100, read-out: Plant response rating, Waterhemp
[18] = test system: winter wheat (Triticum aestivum); experiment: Test C postemergence; conditions: Triticum aestivum, post-emergence, 336 h, Postemergence, scale 0 to 100, read-out: Plant response rating, Wheat
[19] = test system: yellow nutsedge (Cyperus esculentus); experiment: Test C postemergence; conditions: Cyperus, post-emergence, 336 h, Postemergence, scale 0 to 100, read-out: Plant response rating, Nutsedge, Yellow

**Q.** Which results are given for Fc1cccc(Oc2ncc(Cl)cn2)c1Oc1ncc(Br)cn1 [Compound 27, 5-bromo-2-[2-fluoro-6-[(5-chloro-2-pyrimidinyl)oxy]phenoxy]pyrimidine]?
**A.** pest or weed control at 31 g/ha ([1]; 31 g ai/ha): 25%; pest or weed control at 62 g/ha ([1]; 62 g ai/ha): 55%; pest or weed control at 125 g/ha ([1]; 125 g ai/ha): 75%; pest or weed control at 31 g/ha ([2]; 31 g ai/ha): 5%; pest or weed control at 62 g/ha ([2]; 62 g ai/ha): 40%; pest or weed control at 125 g/ha ([2]; 125 g ai/ha): 98%; pest or weed control at 31 g/ha ([3]; 31 g ai/ha): 100%; pest or weed control at 62 g/ha ([3]; 62 g ai/ha): 100%; pest or weed control at 125 g/ha ([3]; 125 g ai/ha): 100%; pest or weed control at 31 g/ha ([4]; 31 g ai/ha): 5%; pest or weed control at 62 g/ha ([4]; 62 g ai/ha): 5%; pest or weed control at 125 g/ha ([4]; 125 g ai/ha): 5%; pest or weed control at 250 g/ha ([4]; 250 g ai/ha): 5%; pest or weed control at 31 g/ha ([5]; 31 g ai/ha): 5%; pest or weed control at 62 g/ha ([5]; 62 g ai/ha): 5%; pest or weed control at 125 g/ha ([5]; 125 g ai/ha): 5%; pest or weed control at 250 g/ha ([5]; 250 g ai/ha): 5%; pest or weed control at 31 g/ha ([6]; 31 g ai/ha): 45%; pest or weed control at 62 g/ha ([6]; 62 g ai/ha): 40%; pest or weed control at 125 g/ha ([6]; 125 g ai/ha): 70%; pest or weed control at 250 g/ha ([6]; 250 g ai/ha): 80%; Corn plant response rating (crop injury, 0 = no effect, 100 = complete kill) at 31 g/ha (corn (Zea mays); 31 g ai/ha): 10%; Corn plant response rating (crop injury, 0 = no effect, 100 = complete kill) at 62 g/ha (corn (Zea mays); 62 g ai/ha): 15%; Corn plant response rating (crop injury, 0 = no effect, 100 = complete kill) at 125 g/ha (corn (Zea mays); 125 g ai/ha): 20%; Corn plant response rating (crop injury, 0 = no effect, 100 = complete kill) at 250 g/ha (corn (Zea mays); 250 g ai/ha): 25%; pest or weed control at 31 g/ha ([7]; 31 g ai/ha): 70%; pest or weed control at 62 g/ha ([7]; 62 g ai/ha): 90%; pest or weed control at 125 g/ha ([7]; 125 g ai/ha): 95%; pest or weed control at 250 g/ha ([7]; 250 g ai/ha): 95%; pest or weed control at 31 g/ha ([8]; 31 g ai/ha): 0%; pest or weed control at 62 g/ha ([8]; 62 g ai/ha): 5%; pest or weed control at 125 g/ha ([8]; 125 g ai/ha): 5%; pest or weed control at 250 g/ha ([8]; 250 g ai/ha): 10%; pest or weed control at 31 g/ha ([9]; 31 g ai/ha): 0%; pest or weed control at 62 g/ha ([9]; 62 g ai/ha): 5%; pest or weed control at 125 g/ha ([9]; 125 g ai/ha): 5%; pest or weed control at 250 g/ha ([9]; 250 g ai/ha): 10%; pest or weed control at 31 g/ha (kochia (Kochia scoparia); 31 g ai/ha): 40%; pest or weed control at 62 g/ha (kochia (Kochia scoparia); 62 g ai/ha): 80%; pest or weed control at 125 g/ha (kochia (Kochia scoparia); 125 g ai/ha): 85%; pest or weed control at 250 g/ha (kochia (Kochia scoparia); 250 g ai/ha): 95%; pest or weed control at 31 g/ha ([10]; 31 g ai/ha): 55%; pest or weed control at 62 g/ha ([10]; 62 g ai/ha): 65%; pest or weed control at 125 g/ha ([10]; 125 g ai/ha): 80%; pest or weed control at 250 g/ha ([10]; 250 g ai/ha): 95%; pest or weed control at 31 g/ha ([11]; 31 g ai/ha): 5%; pest or weed control at 62 g/ha ([11]; 62 g ai/ha): 5%; pest or weed control at 125 g/ha ([11]; 125 g ai/ha): 10%; pest or weed control at 250 g/ha ([11]; 250 g ai/ha): 20%; pest or weed control at 31 g/ha ([12]; 31 g ai/ha): 65%; pest or weed control at 62 g/ha ([12]; 62 g ai/ha): 75%; pest or weed control at 125 g/ha ([12]; 125 g ai/ha): 70%; pest or weed control at 250 g/ha ([12]; 250 g ai/ha): 90%; plant injury at 31 g/ha ([13]; 31 g ai/ha): 30%; plant injury at 62 g/ha ([13]; 62 g ai/ha): 50%; plant injury at 125 g/ha ([13]; 125 g ai/ha): 55%; plant injury at 250 g/ha ([13]; 250 g ai/ha): 60%; pest or weed control at 31 g/ha ([14]; 31 g ai/ha): 85%; pest or weed control at 62 g/ha ([14]; 62 g ai/ha): 90%; pest or weed control at 125 g/ha ([14]; 125 g ai/ha): 95%; pest or weed control at 250 g/ha ([14]; 250 g ai/ha): 98%; pest or weed control at 31 g/ha ([15]; 31 g ai/ha): 15%; pest or weed control at 62 g/ha ([15]; 62 g ai/ha): 35%; pest or weed control at 125 g/ha ([15]; 125 g ai/ha): 60%; pest or weed control at 250 g/ha ([15]; 250 g ai/ha): 80%; plant injury at 31 g/ha (soybean (Glycine max); 31 g ai/ha): 65%; plant injury at 62 g/ha (soybean (Glycine max); 62 g ai/ha): 75%; plant injury at 125 g/ha (soybean (Glycine max); 125 g ai/ha): 90%; plant injury at 250 g/ha (soybean (Glycine max); 250 g ai/ha): 90%; pest or weed control at 31 g/ha ([16]; 31 g ai/ha): 15%; pest or weed control at 62 g/ha ([16]; 62 g ai/ha): 35%; pest or weed control at 125 g/ha ([16]; 125 g ai/ha): 65%; pest or weed control at 250 g/ha ([16]; 250 g ai/ha): 65%; pest or weed control at 31 g/ha ([17]; 31 g ai/ha): 70%; pest or weed control at 62 g/ha ([17]; 62 g ai/ha): 75%; pest or weed control at 125 g/ha ([17]; 125 g ai/ha): 90%; pest or weed control at 250 g/ha ([17]; 250 g ai/ha): 100%; plant injury at 31 g/ha ([18]; 31 g ai/ha): 0%; plant injury at 62 g/ha ([18]; 62 g ai/ha): 0%; plant injury at 125 g/ha ([18]; 125 g ai/ha): 0%; plant injury at 250 g/ha ([18]; 250 g ai/ha): 0%; pest or weed control at 31 g/ha ([19]; 31 g ai/ha): 0%; pest or weed control at 62 g/ha ([19]; 62 g ai/ha): 5%; pest or weed control at 125 g/ha ([19]; 125 g ai/ha): 10%; pest or weed control at 250 g/ha ([19]; 250 g ai/ha): 10%
